# Experimental data published in patent publication US20220062440A1, “OLIGOMER-SELECTIVE FLUORESCENT INDICATOR DYES” (University of South Florida, priority 2018, published 2022).
# Entries after “also recorded” stand apart in the source; their conditions may differ. Like-named read-outs stand apart in the source and are kept apart here.
# Tests used:
# [1] = tested on: amyloid aggregates (gO/CF and RF); settings: cited from earlier work; for Response to gO/CF vs. RF aggregates (selectivity): literature / background statement
# [2] = target: T1, hen egg-white lysozyme (hewL) amyloid aggregates: gO/CFs vs. RFs (Gallus gallus, UniProt P00698); assay: Kinetic dye screening assay: dye fluorescence response during sigmoidal vs. biphasic amyloid assembly, ThT as reference; assay type: binding; settings: for Fluorescence response to initial gO/CF (oligomer) phase of biphasic growth / Fluorescence response to RF nucleation and growth: hewL, pH 2, 52° C.; for Fluorescence response to initial gO/CF (oligomer) phase of biphasic growth: above COC (biphasic regime); for Fluorescence response to RF nucleation and growth: second phase of biphasic growth or sigmoidal growth; for Oligomer (gO/CF) selectivity over fibrils: hewL amyloid assembly, sigmoidal vs. biphasic kinetics
# T1 construct: hen egg-white lysozyme (hewL); from tissue
# Description: A kinetic assay that clearly delineates growth conditions dominated by gO/CF or RF formation as simple function of protein concentration was developed. This kinetic assay was used in conjunction with high-resolution (AFM or TEM) imaging of aggregate morphologies to identify dyes that display well-defined selectivity of gO/CFs over RFs (FIGS. 1A-1E).
# The basis of the kinetic assay is the existence of a “critical oligomer concentration” or COC, distinct from and higher than the protein concentration required for fibril growth [Tatiana Miti, et al. Biomacromolecules (2015) 16:326-335]. Using both hen-egg white lysozyme and a dimeric Aβ construct, it was shown that crossing this COC causes a sharp transition in ThT kinetics from the ubiquitous “sigmoidal” growth kinetics of nucleated polymerization to lag-free bimodal kinetics. The initial phase of bimodal growth is dominated by gO/CF formation while the secondary upswing indicates RF nucleation and growth [Filip Hasecke, et al. Chem. Sci. (2018) 9: 5937-5948]. When below this COC HEWL grows RFS aggregates with a distinct lag phase before the start of growth. Monitoring dye responses both below and above the COC allows rapid determination whether a given fluorescent dye responds only to the initial gO/CF or subsequent RF phase of amyloid growth.
# Kinetic transition is an indicator of oligomer formation (Hasecke F. et al., Chem. Sci., 2018 9:5937-5948). The onset of gO/CF formation is delineated by a threshold protein concentration referred to herein as the “critical oligomer concentration” or COC. […] No populations of gO/CFs are observed. In contrast, gO/CF formation above the COC has no lag periods and results in biphasic kinetics (saturating gO/CF kinetics is superimposed to sigmodal RF kinetics). AFM confirms that the initial phase represents gO/CF formation while the second phase indicates RF nucleation and growth. Using this transition from sigmoidal to biphasic kinetics provides an efficient assay for screening dyes for their response to these distinct aggregate species.
# Instead of requiring isolation and stabilization of amyloid oligomers, the dye screening protocol proposed here takes the identification of two distinct amyloid assembly regimes with distinctly different assembly kinetics (see FIG. 6 and Hasecke, F., et al. Chemical Science, 2018. 9:5937-5948). […] Following the initial lag phase, this regime yields pure populations of “traditional” rigid fibrils (RFs). It lacks any detectable populations of metastable globular oligomers (gOs) or curvilinear fibrils (CFs) during any stage of fibril assembly. Upon crossing a threshold protein (or salt) concentration a second, oligomer-dominated regime emerges. This regime is characterized by lag-free formation of readily detectable populations of gOs and CFs during its initial phase, with RFs emerging in a second growth phase. The transition to this regime is characterized by a concurrent switch in ThT-monitored assembly kinetics from sigmoidal to biphasic kinetics (Hasecke, F., et al. Chemical Science, 2018. 9:5937-5948; Miti, T., et al. Biomacromolecules, 2015. 16:326-335; Foley, J., et al. J Chem Phys., 2013. 139:121901; Hill, S. E., et al. PLoS ONE, 2011. 6:e18171). Monitoring fluorescence responses of dyes to amyloid assembly under either sigmoidal or biphasic growth conditions provides a direct and straight-forward readout for their selectivity to oligomer over fibril formation.
# Using the above transition in the model amyloid hewL a small subset of about one dozen dyes were screened for oligomer-selective responses. Oligomer-free sigmoidal kinetics provided the read-out for dye responses to pure fibril formation—relative to the ThT response recorded under the same conditions. Responsiveness of dyes to gO/CF formation was evaluated during the initial gO/CF phase of biphasic kinetics, as long as it was well separated from the second RF-related upswing. […]
# [3] = target: T2, hen egg-white lysozyme (hewL) amyloid aggregates (Gallus gallus, UniProt P00698); assay: AFM imaging of hewL aggregate morphologies during biphasic growth in the presence of dye; settings: 5 mg/ml hewL, pH 2, 52° C., CV 5 μM, listed as CV
# T2 construct: hen egg-white lysozyme (hewL); from tissue
# Description: FIG. 8B contains AFM images from aliquots taken during biphasic amyloid growth in FIG. 8A from the CV wells at the indicated time points. […] This kinetic assay was used in conjunction with high-resolution (AFM or TEM) imaging of aggregate morphologies to identify dyes that display well-defined selectivity of gO/CFs over RFs (FIGS. 1A-1E). Using the above transition in the model amyloid hewL a small subset of about one dozen dyes were screened for oligomer-selective responses. Oligomer-free sigmoidal kinetics provided the read-out for dye responses to pure fibril formation—relative to the ThT response recorded under the same conditions. Responsiveness of dyes to gO/CF formation was evaluated during the initial gO/CF phase of biphasic kinetics, as long as it was well separated from the second RF-related upswing. Even this very limited and fairly arbitrary set of dyes yielded three different dyes with a modest level of oligomer-specific responses (FIG. 7). While encouraging, the level of oligomer selectivity, the overall fluorescence change upon either fibril or oligomer formation, or the rapid bleaching of the dyes under these growth conditions didn't warrant further investigation. […] It confirms that the progression of hewL aggregates during biphasic growth is not altered by the presence of CV.
# T1 sequence (P00698 19-147): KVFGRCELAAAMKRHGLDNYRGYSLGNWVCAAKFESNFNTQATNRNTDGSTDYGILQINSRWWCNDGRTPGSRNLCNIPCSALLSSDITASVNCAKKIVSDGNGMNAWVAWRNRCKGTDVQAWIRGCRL
# T2 sequence (P00698 19-147): as above
compound,measurement,setting,value
"N#CC(C#N)=Cc1cc2c3c(c1)CCCN3CCC2 [DCVJ, 9-(Dicyanovinyl) Julolidine]",Response to gO/CF vs. RF aggregates (selectivity),[1],some oligomer selectivity
"Cc1ccc2c(c1)sc(-c1ccc(N(C)C)cc1)[n+]2C.[Cl-] [ThT, reference compound]",Fluorescence response to initial gO/CF (oligomer) phase of biphasic growth,[2],robust response to the initial gO/CF dominated phase; also recorded: expected biphasic behavior as the sample grows gO/CFs up to a first plateau; also recorded: weak biphasic response; also recorded: identical response to amyloid growth prior to the onset of RF formation
same,Fluorescence response to RF nucleation and growth,[2],readily picked up; also recorded: second upswing and plateau indicating the onset of RF nucleation and growth; also recorded: continues to rise following RF nucleation
same,Response to gO/CF vs. RF aggregates (selectivity),[1],"responds to both gO/CF and RF aggregates, albeit with different sensitivities; also recorded: highly skewed towards late-stage amyloid fibrils"
same,Response to gO/CF vs. RF aggregates (selectivity),[1]; listed as Thioflavin T,considerably less enhanced by gO/CF vs. RF formation
same,Response to gO/CF vs. RF aggregates (selectivity),[1]; listed as thioflavin T,preferentially respond to late stage RFs instead of gOs and CFs
"CC1=C/C(=C(\c2ccc(N)c(S(=O)(=O)[O-])c2)c2ccc(N)c(S(=O)(=O)O)c2)C=C(S(=O)(=O)[O-])C1=N.[Na+].[Na+] [acid fuchsin, reference compound]",Oligomer (gO/CF) selectivity over fibrils,[2],(weak) select responses to oligomer-dominated phase
Nc1c(/N=N/c2ccc(-c3ccc(/N=N/c4cc(S(=O)(=O)O)c5ccccc5c4N)cc3)cc2)cc(S(=O)(=O)O)c2ccccc12 [congo red],Response to gO/CF vs. RF aggregates (selectivity),[1],preferentially respond to late stage RFs instead of gOs and CFs
"O=C(O)c1cc(/C=C/c2ccc(/C=C/c3ccc(O)c(C(=O)O)c3)cc2)ccc1O [X-34, reference compound]",Oligomer (gO/CF) selectivity over fibrils,[2],(weak) select responses to oligomer-dominated phase
N#CC(C#N)=Cc1ccc(-c2ccc(-c3ccc(O)cc3)s2)s1 [NIAD-4],Response to gO/CF vs. RF aggregates (selectivity),[1],preferentially respond to late stage RFs instead of gOs and CFs
"CN(C)c1ccc2cc3ccc(N(C)C)cc3nc2c1 [acridine orange, reference compound]",Oligomer (gO/CF) selectivity over fibrils,[2],(weak) select responses to oligomer-dominated phase
methyl violet,Oligomer (gO/CF) selectivity over fibrils,[2],noticeable oligomer selectivity
"CN(C)c1ccc(C(=C2C=CC(=[N+](C)C)C=C2)c2ccc(N(C)C)cc2)cc1 [crystal violet, tris(4-(dimethylamino)phenyl)methylium chloride]",Oligomer (gO/CF) selectivity over fibrils,[2],oligomer-selective dye and noticeable oligomer selectivity and OSD and preferentially enhanced upon binding to gO/CFs
same,Fluorescence response to initial gO/CF (oligomer) phase of biphasic growth,[2],responds nearly exclusively to the initial (oligomer) phase; also recorded: identical response to amyloid growth prior to the onset of RF formation
same,Fluorescence response to initial gO/CF (oligomer) phase of biphasic growth,[2]; listed as CV,robust response to the initial gO/CF dominated phase
same,Fluorescence response to initial gO/CF (oligomer) phase of biphasic growth,[2]; listed as Crystal violet,closely match the kinetics of the initial gO/CF phase in ThT kinetics
same,Fluorescence response to RF nucleation and growth,[2],weak fibril response; also recorded: little or no response to the onset of RF formation; also recorded: level off
same,Fluorescence response to RF nucleation and growth,[2]; listed as CV,lacks the upswing to subsequent RF nucleation and growth; also recorded: weak response to RF formation
same,Fluorescence response to RF nucleation and growth,[2]; listed as Crystal violet,very weak responses upon the onset of RF formation
same,Temporal correlation of dye signal with ThT signal,[2]; sigmoidal and initial phase of biphasic growth of hewL,one-to-one temporal correlation
same,Effect of dye on aggregate types / progression of aggregates (AFM),[3],not altered; also recorded: did not alter the types of aggregates observed
same,Amyloid staining,[1]; literature (Cooper 1969),weak metachromatic amyloid stain
